Measurements published in patent US20220233549A1, “METHOD FOR ALPHAVIRUS INHIBITION” (priority 2019, published 2022).

Test system: CHIKV 181/clone25
Test: CHIKV cytopathic effect (CPE) protection assay in Vero cells
Assay type: cell-based
Settings: Chikungunya virus; CHIKV 181/clone25, Vero cells, MOI=0.01, 48 hrs, protection from CPE (crystal violet, absorbance 595nm)

| SMILES | EC50 [µM] |
| --- | --- |
| O=C(CC1Sc2ncccc2NC1=O)NCC1CCCCC1 (centres unmarked) [Example 2, N-(cyclohexylmethyl)-2-(2-oxo-2,3-dihydro-1H-pyrido[2,3-b][1,4]thiazin-3-yl)acetamide] | < 10 |
| COC(=O)CC1Sc2ncccc2NC1=O (centres unmarked) [Example 3, methyl 2-(2-oxo-2,3-dihydro-1H-pyrido[2,3-b][1,4]thiazin-3-yl)acetate] | > 100 |
| O=C(CC1Sc2ncccc2NC1=O)NCC1CCC(O)CC1 (centres unmarked) [Example 4, N-((4-hydroxycyclohexyl)methyl)-2-(2-oxo-2,3-dihydro-1H-pyrido[2,3-b][1,4]thiazin-3-yl)acetamide] | > 100 |
| O=C(O)CC1Sc2ncccc2NC1=O (centres unmarked) [Example 5, 2-(2-oxo-2,3-dihydro-1H-pyrido[2,3-b][1,4]thiazin-3-yl)acetic acid] | > 100 |
| CN1C(=O)[C@@H](CC(=O)NCC2CCCCC2)Sc2ncccc21 [Example 6, (R)-N-(cyclohexylmethyl)-2-(1-methyl-2-oxo-2,3-dihydro-1H-pyrido[2,3-b][1,4]thiazin-3-yl)acetamide] | < 10 |
| CN1C(=O)[C@H](CC(=O)NCC2CCCCC2)Sc2ncccc21 [Example 7, (S)-N-(cyclohexylmethyl)-2-(1-methyl-2-oxo-2,3-dihydro-1H-pyrido[2,3-b][1,4]thiazin-3-yl)acetamide] | 10 to 49.9 |
| CN1CCN(C(=O)CC2Sc3ncccc3N(C)C2=O)CC1 (centres unmarked) [Example 8, 1-methyl-3-(2-(4-methylpiperazin-1-yl)-2-oxoethyl)-1H-pyrido[2,3-b][1,4]thiazin-2(3H)-one] | > 100 |
| CN1C(=O)C(CC(=O)NCC2CCCO2)Sc2ncccc21 (centres unmarked) [Example 9, 2-(1-methyl-2-oxo-2,3-dihydro-1H-pyrido[2,3-b][1,4]thiazin-3-yl)-N-((tetrahydrofuran-2-yl)methyl)acetamide] | > 100 |
| CC(C)NC(=O)CC1Sc2ncccc2N(C)C1=O (centres unmarked) [Example 10, N-isopropyl-2-(1-methyl-2-oxo-2,3-dihydro-1H-pyrido[2,3-b][1,4]thiazin-3-yl)acetamide] | > 100 |
| CCN1CCN(C(=O)CC2Sc3ncccc3N(C)C2=O)CC1 (centres unmarked) [Example 11, 3-(2-(4-ethylpiperazin-1-yl)-2-oxoethyl)-1-methyl-1H-pyrido[2,3-b][1,4]thiazin-2(3H)-one] | > 100 |
| CN1C(=O)C(CC(=O)NCc2ccccn2)Sc2ncccc21 (centres unmarked) [Example 12, 2-(1-methyl-2-oxo-2,3-dihydro-1H-pyrido[2,3-b][1,4]thiazin-3-yl)-N-(pyridin-2-ylmethyl)acetamide] | > 100 |
| CN1C(=O)C(CC(=O)NCc2cccnc2)Sc2ncccc21 (centres unmarked) [Example 13, 2-(1-methyl-2-oxo-2,3-dihydro-1H-pyrido[2,3-b][1,4]thiazin-3-yl)-N-(pyridin-3-ylmethyl)acetamide] | > 100 |
| CN1C(=O)C(CC(=O)NCc2ccncc2)Sc2ncccc21 (centres unmarked) [Example 14, 2-(1-methyl-2-oxo-2,3-dihydro-1H-pyrido[2,3-b][1,4]thiazin-3-yl)-N-(pyridin-4-ylmethyl)acetamide] | > 100 |
| CN1C(=O)C(CC(=O)NCc2ccccc2)Sc2ncccc21 (centres unmarked) [Example 15, N-benzyl-2-(1-methyl-2-oxo-2,3-dihydro-1H-pyrido[2,3-b][1,4]thiazin-3-yl)acetamide] | 10 to 49.9 |
| CCC(C)NC(=O)CC1Sc2ncccc2N(C)C1=O (centres unmarked) [Example 16, N-(sec-butyl)-2-(1-methyl-2-oxo-2,3-dihydro-1H-pyrido[2,3-b][1,4]thiazin-3-y)acetamide] | > 100 |
| CC(NC(=O)CC1Sc2ncccc2N(C)C1=O)c1ccccc1 (centres unmarked) [Example 17, 2-(1-methyl-2-oxo-2,3-dihydro-1H-pyrido[2,3-b][1,4]thiazin-3-yl)-N-(1-phenylethyl)acetamide] | > 100 |
| COCCNC(=O)CC1Sc2ncccc2N(C)C1=O (centres unmarked) [Example 18, N-(2-methoxyethyl)-2-(1-methyl-2-oxo-2,3-dihydro-1H-pyrido[2,3-b][1,4]thiazin-3-yl)acetamide] | > 100 |
